One data set has as its system 105/F (zidovudine^R). Description: Drug-resistant clinical isolates in PBMCs (p24). The data set is classed as cell-based, HIV-1. The note with it: Human immunodeficiency virus 1, PBMC. The protocol:
(§1) ANTIVIRAL ASSAYS. The anti-HIV-1 activity of the compound A (−) were assessed by employing HIV-1IIIB in a variety of cell types as previously described (Gu et al., 1992, 1994, 1999; Rando et al., 1995; Salomon et al., 1994). Briefly, cells were incubated with virus at a multiplicity of infection (MOI) of 0.005 for T cell assays and an MOI of 0.5 for monocytic cell assays for 3 hrs. Unbound virus was then removed by washing the cells, followed by seeding the cells into a 96-well plate. The infected cells were cultured in the presence of a serial concentrations of the test compound for 5-7 days. The anti-HIV-1 efficacy was determined by testing for HIV-1 RT activity or p24 level in the cell culture supernatants. All assays were performed in duplicate. Zidovudine and/or lamivudine were used as controls in each experiment.
(§2) Clinical strains were isolated from PBMCs of HIV-1 infected individuals through co-culture with PBMCs from normal dornors. To determine the RT genotype of the HIV-1 clinical isolates, the proviral DNA was extracted from infected CD4^+ T-cells or PBMCs and the complete RT coding regions were amplified by PCR as previously reported (Gu et al 1992). The PCR product was purified and then directly sequenced using primer RTS (5′-CCAAAAGTTAAACAATGGC-3′) which is located at the 5′ portion of the RT coding region (nucleotide 2603-2621 of HXB2-D coordinates). Antiviral activity was evaluated as described in example 10.

Another data set relates to CCR18 (Lamivudine^R). Description: Drug-resistant clinical isolates in PBMCs (p24). The class given is cell-based, HIV-1. The conditions noted are these: Human immunodeficiency virus 1, PBMC. Here is the method: as §1, §2
For a further data set, the system named is CCR19 (Lamivudine^R). Description: Drug-resistant clinical isolates in PBMCs (p24). The conditions noted are these: Human immunodeficiency virus 1, PBMC. The class given is cell-based, HIV-1. The protocol:
as §1, §2

The subject of a further data set is CCR15 (Lamivudine^R). As to the kind of experiment: Drug-resistant clinical isolates in PBMCs (p24). The class given is cell-based, HIV-1. The note with it: Human immunodeficiency virus 1, PBMC. Here is the method:
as §1, §2

For another data set, the system named is 105/A (wt). As to the kind of experiment: Drug-resistant clinical isolates in PBMCs (p24). The data set is classed as cell-based, HIV-1. The conditions noted are these: Human immunodeficiency virus 1, PBMC. The protocol: as §1, §2
The next data set relates to M184V. Description: Recombinant drug resistant HIV-1 variants (RT activity). The class given is cell-based. The note with it: Human immunodeficiency virus 1. Here is the method:
as §1
(§3) Recombinant HIV-1 variants were prepared by introducing the designed mutations into HXB2-D by site-directed mutagenesis as described (Gu et al. 1992, 1994). The virus stocks were prepared by transfecting MT-4 cells with infectious viral DNA constructs. Antiviral activity of the compound A (−) was evaluated as described in example 10.

For a further data set, the system named is K65R/M184V. The description is as above. The data set is classed as cell-based. The conditions noted are these: Human immunodeficiency virus 1. Here is the method: as §1, §3
In another data set the test system is PI^R. The data set is described as above. The data set is classed as cell-based. The note with it: Human immunodeficiency virus 1. Here is the method: as §1, §3
The next data set deals with E89G/M184V. Described as above. The data set is classed as cell-based. The note with it: Human immunodeficiency virus 1. The protocol:
as §1, §3

The subject of a further data set is M184I. The data set is described as above. The note with it: Human immunodeficiency virus 1. The data set is classed as cell-based. Here is the method:
as §1, §3

Another data set relates to L74V. The description is as above. The conditions noted are these: Human immunodeficiency virus 1. The class given is cell-based. The protocol:
as §1, §3

A further data set relates to NNRTI^R. The data set is described as above. The data set is classed as cell-based. The conditions noted are these: Human immunodeficiency virus 1. Here is the method: as §1, §3
The next data set deals with JM1. The description is as above. The data set is classed as cell-based. The note with it: Human immunodeficiency virus 1, JM1. The protocol: as §1, §3
A further data set concerns JM4. Described as above. The class given is cell-based. The note with it: Human immunodeficiency virus 1. Here is the method:
as §1, §3

The nature of data set [1]: Cellular toxicity by [3H]-thymidine uptake. The class given is cell-based, human. The conditions noted are these: human, Table 14, PHA-stimulated PBMCs, read-out: CC50 (μM) [^3H]TTP incorporation in: PBMC. The protocol:
(§4) Cellular toxicity was assessed by [^3H]thymidine uptake (de Muys et al. 1999) and WST-1 staining. In the [^3H]thymidine uptake experiments, Molt-4, HT1080, DU-145, HepG2 and HSF, were plated at a concentration of 1-2×10^3 cells per well (96 well plates). PHA-stimulated PBMCs were cultured at a concentration of 4×10^4 cells per well. Following a 24 hr pre-incubation period, test compounds (10^−4 M to 10^−10 M) were added and the cells were incubated for an additional 72 hrs. [^3H]thymidine was added during the final 18 hr incubation period. The cells were then washed once with PBS, treated with trypsin if the cells were adherent, and resuspended in water (hypotonic lysing of cells). The cellular extract was applied directly to a Tomtec Harvester 96. The 50% cytotoxic concentration (CC50) was determined by comparing the radioactive counts per minute obtained from drug-tested samples to those obtained from the control (untreated) cells.

The nature of data set [2]: Cellular toxicity by [3H]-thymidine uptake. The data set is classed as cell-based. The conditions noted are these: human. Here is the method:
The cellular toxicity of the compounds were assessed on various cells using [^3H]-thymidine uptake. Various cells, including Molt-4, HT1080, DU-145, HepG-2 and HSF, were plated at a concentration of 1-2×10^3 cells per well (96 well plates). After a 24 hr incubation period, 10-fold serial diluted compounds (b 10^−4 M to 10^−10 M) were added to the culture medium and the cells were further incubated for 72 hrs. [^3H]-thymidine was added during the final 18 hr incubation period. After incubation with the [^3H]-thymidine, the cells were washed once with PBS, treated with trypsin if the cells were adherent, and then resuspended in water (hypotonic lysing of cells). The cellular extract was applied directly to a Tomtec Harvester 96. Using this instrument the extracted DNA is adsorbed onto filters, washed and the incorporated [^3H]-thymidine is then counted. The 50% cytotoxic concentration (CC50) was determined by comparing the radioactive counts per minute of the samples in the presence of the compounds against the control. The cellular toxicity of the compounds was also tested by WST-1 staining through assessing proliferation of MT-2, H9, Jurkat, U937, and CBMCs. The established cell lines were cultured in RPMI medium in 96-well plates at a density of 5×10^4 cells/well while CBMCs were plated at a concentration of 0.5×10^6/well. A 10-fold serial diluted (10^−4-10^−7 M) compound was added at day zero. At day 4, the cells were passaged by changing half medium containing appropriately diluted compound. The cell activities were assessed at day 7 using the WST-1 reagent (Boehringer Mannheim) following the protocol provided by the supplier.
as §4

Setting [3] is: Table 4, read-out: CC50 (μM) [^3H-]TTP incorporation in: HSF.
[4] abbreviates: Table 4, read-out: CC50 (μM) [^3H-]TTP incorporation in: Molt-4.

Read-outs that look alike come from different tables or passages of the source. Some results are limits rather than exact numbers.

Take `Nc1nc(NC2CC2)c2ncn([C@H]3CO[C@@H](CO)O3)c2n1` [Compound A (-), (−)-(2R,4R)-2-hydroxymethyl-4-(2′-amino-6′-cyclopropylamino-purine-9′-yl)-1,3-dioxolane]: the IC50 is 0.84 µM with 105/F (zidovudine^R); 1.3 µM in the data set with CCR18 (Lamivudine^R); 1.6 µM with CCR19 (Lamivudine^R); 0.3 µM with CCR15 (Lamivudine^R); 0.6 µM in the data set with 105/A (wt). In addition, the EC50 in the data set on M184V was 0.53 µM; with K65R/M184V, 1.1 µM; in the data set with PI^R, 0.2 µM; in the data set on E89G/M184V, 0.51 µM; with M184I, 0.99 µM; with L74V it was 0.62 µM. The values for the EC50 in the data set with NNRTI^R, with JM1 and in the data set with JM4 were 0.1 µM, 1.83 µM and 0.58 µM, respectively. The CC50 at 72 h in [1] is 286 µM; in data set [2] (DU-145 cells, Table 14, read-out: CC50 (μM) [^3H]TTP incorporation in: U145), > 500 µM; in [2] (HSF cells, Table 14, read-out: CC50 (μM) [^3H]TTP incorporation in: HSF), 414 µM; in data set [2] (HT1080 cells, Table 14, read-out: CC50 (μM) [^3H]TTP incorporation in: HT800), > 500 µM; in data set [2] (HepG2 cells, Table 14, read-out: CC50 (μM) [^3H]TTP incorporation in: HepG2) it was > 500 µM; in [2] (Molt-4 cells, Table 14, read-out: CC50 (μM) [^3H]TTP incorporation in: Molt4), > 500 µM.
Regarding `Nc1ccn([C@@H]2CS[C@H](CO)O2)c(=O)n1` [Lamivudine, lamivudine], the half-maximal inhibitory concentration (IC50) in the data set with 105/F (zidovudine^R) came to 0.17 µM; with CCR18 (Lamivudine^R) it was 300 µM; in the data set with CCR19 (Lamivudine^R) it was 95 µM; with CCR15 (Lamivudine^R) it was 95 µM; with 105/A (wt), 0.065 µM. Besides, the EC50 in the data set with M184V was > 40 µM; with K65R/M184V, > 40 µM; in the data set with PI^R it was 0.29 µM; with E89G/M184V it was > 40 µM; in the data set on M184I, > 40 µM; in the data set on L74V, 0.51 µM. In addition, the concentration for a half-maximal effect (EC50) is 0.15 µM in the data set with NNRTI^R, > 40 µM in the data set with JM1 and 0.85 µM in the data set with JM4. Further, the CC50 at 72 h in data set [1] was > 500 µM; in [2] (setting [3]), 400 µM; in data set [2] (setting [4]), > 100 µM; in data set [2] (Table 14, read-out: CC50 (μM) [^3H]TTP incorporation in: HT800), > 500 µM; in [2] (Table 14, read-out: CC50 (μM) [^3H]TTP incorporation in: HepG2), > 100 µM; in data set [2] (Table 14, read-out: CC50 (μM) [^3H]TTP incorporation in: U145) it was > 500 µM.
On to `Cc1cn([C@H]2C[C@H](N=[N+]=[N-])[C@@H](CO)O2)c(=O)[nH]c1=O` [Zidovudine, zidovudine], for which the concentration for half-maximal inhibition (IC50) with 105/F (zidovudine^R) amounted to 0.23 µM; with CCR18 (Lamivudine^R), 0.0042 µM; in the data set with CCR19 (Lamivudine^R), 0.003 µM; in the data set on CCR15 (Lamivudine^R) it was 0.003 µM; in the data set on 105/A (wt), 0.0043 µM. In addition, the EC50 in the data set with M184V was 0.02 µM; in the data set on K65R/M184V, 0.031 µM; in the data set with PI^R, 0.017 µM; with E89G/M184V it was 0.022 µM; in the data set with M184I, 0.009 µM; in the data set on L74V it was 0.01 µM. For the same compound, the EC50 with NNRTI^R stood at 0.0061 µM; in the data set with JM1 it was 0.027 µM; in the data set on JM4, 0.27 µM. The CC50 at 72 h in data set [1] is 9 µM; in data set [2] (setting [3]) it was > 10 µM; in data set [2] (Table 4, read-out: CC50 (μM) [^3H-]TTP incorporation in: HT1080) it was 5 µM; in [2] (Table 4, read-out: CC50 (μM) [^3H-]TTP incorporation in: HepG2), 3 µM; in data set [2] (setting [4]) it was 3 µM; in data set [2] (Table 4, read-out: CC50 (μM) [^3H-]TTP incorporation in: U-145), > 10 µM.

These data come from patent US20010049372A1, “Antiviral nucleoside analogues” (BioChem Pharma Inc., priority 1998, published 2001).
